{"source": "patent US20190040447A1", "about": "“Assay for compounds having activity against influenza” (priority 2016, published 2019)", "molecular_target": "RNA-dependent RNA polymerase (RdRp) comprised in an influenza viral ribonucleoprotein (RNP) complex (Influenza A virus, UniProt P03428+P03431+P03433)", "experiment": "Influenza filter RNP transcription/replication assay (HTS screen using the method of the invention)", "format": "biochemical, Influenza virus (Influenza A/PR/8/34, Influenza B\\Lee\\40)", "settings": "virus lysate containing native vRNP; which assay (transcription or replication) and which strain are not stated"}
{"smiles": "O=C(O)[C@H]1[C@H]2CC[C@H]([C@H]3C[C@H]32)[C@@H]1Nc1nc(-c2n[nH]c3ncc(F)cc23)ncc1F", "note": "[(−)-(1R,2S,4R,5S,6S,7S)-7-((5-fluoro-2-(5-fluoro-1H-pyrazolo[3,4-b]pyridin-3-yl)pyrimidin-4-yl)amino)tricyclo[3.2.2.02,4]nonane-6-carboxylic Acid]", "values": [{"measurement": "IC50", "value": 0.2, "unit": "nM"}]}
